In this assay the test system is stationary phase Staphylococcus aureus. Kind of assay: In vitro efficacy test against stationary phase Staphylococcus aureus (CFU counts). In kind it is cell-based, Staphylococcus aureus (Oxford). How it is done: Staphylococcus aureus (Oxford); Gram positive; Reference strain.
Stationary phase growth of methicilin sensitive Staphylococcus aureus (MSSA) was carried out as follows:
Subculture of the bacterial strains on agar plates: Overnight S. aureus bacterial cultures were stored at −70° C. with 20% glycerol (cryoprotectant). A loopful of the frozen cells was streaked on a blood agar plate which was incubated at 37° C. overnight (or longer) as culture plate A. A single colony of each strain from the culture plate A was streaked on the blood agar plate which was incubated at 37° C. overnight (or longer) as culture plate B. The culture plate B was stored at 4° C. for a week and served as the initial inoculation plate.
Bacterial growth in broth culture: A single colony from culture plate B was inoculated in 10 ml of nutrient broth (No. 2, (Oxoid)), which was incubated overnight at 37° C. with continuous shaking at 120 rpm. 200 μl of the overnight culture was added into a 500 ml bottle containing 100 ml of nutrient broth. The 100 ml culture was incubated at 37° C. with continuous shaking for 6 to 7 days. Viability of the cultures is estimated by colony forming unit (CFU) counts at 2 hour intervals for the first 24 hours and 12 to 24 hours afterwards.
Colony Forming Unit (CFU) counts were performed as follows: From serial 10-fold dilutions of the cultures, 100 μl samples were added to one third of blood agar plates (Oxoid) in triplicate. CFUs were counted using an aCoLyte colony counter (Synbiosis) after incubation of the plates at 37° C. for 24 hours or longer.
7 day old stationary phase cultures were used. The stationary phase cultures were diluted to obtain CFU counts in the cell suspension of 10^6 to 10^7 CFU/ml. The cell suspension was used to test drug sensitivity.
HT61 was dissolved in DMSO to the stock concentration of 10 mg/ml.
HT00800059 was dissolved in H2O to the stock solution 10 mg/ml
The drugs were first diluted as follows: • 7.2 μl of HT61 at 10 mg/ml was added into 292.8 μl of H2O followed by diluting 2 fold, 3 times. • 57.6 μl of HT00800059 at 10 mg/ml was added into 242.4 μl of H2O followed by diluting 2 fold, 2 times. • 10 μl of HT00800059 from each dilution was added into the wells of a 96 well plate followed by the addition of 290 μl of bacterial cell suspension to make the final concentrations of HT00800059 at 64, 32 and 0 μg/ml. • […]
In combination of two drugs: 10 μl of HT61 from each dilution was added into the wells of a 96 well plate followed by the addition of 10 μl of HT00800059 from each dilution. […]

Where a name gives a salt, the structure may show the parent alone.

As for `CCCCOc1ccc(C(=O)CCN2CCCCC2)cc1` [HT00800059, dyclonine (1-(4-Butoxyphenyl)-3-(1-piperidinyl)-1-propanone) hydrochloride], the CFU killed result reads like this: (32 μg/ml, over 8 hours) “about 10^4 CFU”; (64 μg/ml, over 6 hours) “about 10^7 CFU”.

(Values after patent publication US9789101B2, “Methods and compositions for treating microbial infection using pyrroloquinone” (HELPERBY THERAPEUTICS LIMITED, priority 2010, dated 2017).)
